The results in this text go back to US20250333394A1, “Tiparp Inhibitor Compounds” (AbbVie Inc., priority 2024, published 2025).

The test system of one assay is DLD-1 parent cells. The assay is described as follows: CellTiter-Glo DLD-1 parent cell assay. The following applies: Homo sapiens, 144 h, 6 days, read-out: DLD-1 CTG EC50. In kind it is cell-based. An excerpt:
(§1) The DLD-1 BRCA2 (−/−) CellTiter-Glo® assay measured the synthetic lethality of PARP1/2 inhibitors and was used as a surrogate to allow measurement of activity of both PARP1 and PARP2 in cells. If PARP1 and PARP2 are inhibited and are trapped onto chromatin during DNA replication, there is replication fork stalling and accumulation of double strand breaks. In BR CA wild-type cells, the resulting double strand DNA breaks are repaired via homologous recombination. In cells with mutation of BRCA1 or BRCA2, homologous recombination repair of DNA double strand breaks is defective, and cell death occurs after PARP1/2 inhibitor treatment (Lord C J, Ashworth A. PARP inhibitors: synthetic lethality in the clinic. Science. 2017 Mar. 17; 355(6330):1152-1158). Testing compounds in viability assays with the DLD-1-BR CA 2 (−/−) and DLD-1 parent cell enabled assessment on PARP1/2-dependent (cytotoxicity in the BRCA2 (−/−) cells only) vs. non-selective cytotoxicity in both cell lines.
(§2) Compound stock solutions (10 mM) were serially diluted in 3-fold increments in dimethyl sulfoxide (DMSO). Sample aliquots (120 nL) were dispensed into Corning® 384-well Flat Clear Bottom White Polystyrene TC-treated Microplates (Corning Life Sciences, Corning, NY, USA) using an ECHO® 550 acoustic Labcyte dispenser (Beckman-Coulter Life Sciences, Indianapolis, IN, USA) to achieve concentrations between 30 μM and 0.5 nM in the assay. In the assay, 40 μL of 500 DLD-1 parent cells (HORIZON® Therapeutics, Deerfield, IL, USA) or 40 μL of 1200 DLD-1-BRCA2 (−/−) cells (HORIZON Therapeutics) in complete growth medium containing RPMI 1640 growth medium (ThermoFisher Scientific, Waltham, MA, USA) supplemented with 20 mg/L L-glutamate, 25 mM HEPES (4-(2-hydroxyethyl)-1-piperazineethanesulfonic acid), 10% (v/v) heat inactivated FBS (fetal bovine serum), and 1% (w/v) Penicillin-Streptomycin were added.
(§3) Duplicate cell plates with 40 μL cells/well along with various concentrations of compounds were kept in Nunc™ Square BioAssay Dishes (Thermo Fisher Scientific) at 98% relative humidity in a 5% CO2 incubator at 37° C. for 6 days. On day 7, plates were moved to ambient lab conditions for 10 minutes until the temperature equilibrated. Following equilibration, CellTiter-Glo® Luminescent Cell Viability Assay reagent (Promega™, Madison, WI, USA) was added (15 μL) to each well of the plates. After a 20 minutes incubation, luminescence was detected using a ViewLux™ microplate imager (PerkinElmer, Waltham, MA, USA). Data analysis was performed using GraphPad Prism (Dotmatics, Boston, MA, USA).
On the technique in general: ATP-based viability assays read luminescence as a measure of living cells.

In the next assay the target is PARP1 GST (Homo sapiens (Human), UniProt P09874). The experiment in a line: TR-FRET binding assay, PARP1. The following applies: Probe 2, 2 hours incubation. As to the method:
(§4) TR-FRET assays were used to measure the binding of compounds to TIPARP and PARP1, and to characterize biochemical selectivity. Compound stock solutions (10 mM) were serially diluted in 3-fold increments in dimethyl sulfoxide (DMSO). Diluted compounds were dispensed (30 nL) into white ProxiPlate-384-well plates (PerkinElmer, Waltham, MA, USA) using an ECHO® 550 acoustic Labcyte dispenser (Beckman-Coulter Life Sciences, Indianapolis, IN, USA) to achieve a final starting concentration of 30 μM to 0.5 nM in the assay. This was followed by addition of 5 μL of 2× protein/probe mix (Table 2) made in assay buffer (Tris-HCl 50 mM pH 8.0; 5 mM MgCl2; 5 μM ZnCl2; 1 mM DTT (dithiothreitol); 0.15% BSA (bovine serum albumin) (w/v); and 0.01% TritonX-100 (w/v)) at final concentrations listed in Table 2. Subsequently, 5 μL of 2× antibody (Tb-labeled anti-GST antibody, Thermo Fisher Scientific, Waltham, MA, USA) in HEPES buffered saline was added to each well at a final concentration of 1 nM. The samples were then incubated for 2 hours under ambient conditions. Fluorescence was measured and TR-FR ET ratios were determined on an EnVision multimode plate reader (PerkinElmer) using a 520 nanometer (nm) excitation wavelength and collecting fluorescence emission at 495 nm.
A general note: Time-resolved FRET reads energy transfer from a long-lived donor to a nearby acceptor.

A further assay has as its target TIPARP GST-(TEV) (Homo sapiens (Human), UniProt Q7Z3E1). The experiment in a line: TR-FRET binding assay, TIPARP. The following applies: for IC50: TR-FRET, Probe 1, 2 hours incubation; for PARP1/TIPARP IC50 Ratio: ratio of PARP1 GST IC50 to TIPARP GST-(TEV) IC50.
Text: as §4, with “The full-length cDNA encoding the human TIPARP (NP_001171647.1, UniProtKB-Q7Z3E1) of 657 amino acids was the template to generate the expression construct. […] The TIPARP fusion protein includes GST, glutathione S-transferase, a 26 kDa protein whose DNA sequence is frequently integrated into expression vectors for production of recombinant proteins. A […], was cloned into vector pFastBacTM 1 (Thermo Fisher Scientific) with an N-terminal GST tag followed by a TEV protease site to produce the TIPARP fusion protein, TIPARP GST-(TEV). TR-FRET” for “TR-FRET”, “nm. […] [table]” for “nm.”

The next assay relates to NCI-H1373 cells. The assay is described as follows: NCI-H1373 CellTiter-Glo cell assay for TIPARP inhibition. In kind it is cell-based, human. The following applies: Homo sapiens, NCI-H1373, 144 h; 6 days, 100 nM 10-Cl-BBQ in medium; read-out: NCI-H1373 CTG EC50. As to the method: The NCI-H1373 CellTiter-Glo® assay was used to determine cell numbers after TIPARP inhibition-induced cell cycle arrest, and enabled screening of compounds for cellular TIPARP inhibition potency.
Compound stock solutions (10 mM) were serially diluted in 3-fold increments in dimethyl sulfoxide. Sample aliquots (120 nL) were dispensed into Corning® 384-well Flat Clear Bottom White Polystyrene TC-treated Microplates (Corning Life Sciences, Corning, NY, USA) using an ECHO® 550 acoustic Labcyte dispenser (Beckman-Coulter Life Sciences, Indianapolis, IN, USA) to achieve final concentrations between 30 μM and 0.5 nM in the assay. This was followed by the addition of 40 μL of 1000 NCI-H1373 cells (ATCC®, Manassas, VA, USA) in complete growth medium RPMI 1640 growth medium (Thermo Fisher Scientific, Waltham, MA, USA) supplemented with 20 mg/L L-glutamate, 25 mM HEPES (4-(2-hydroxyethyl)-1-piperazineethanesulfonic acid), 10% (v/v) heat inactivated FBS (fetal bovine serum), 1% (w/v) penicillin-streptomycin, and 100 nM 10-Cl-BBQ (10-chloro-7H-benzimidazo[2,1-a]benz[de]isoquinolin-7-one, (Tocris, Minneapolis, MN, USA). Duplicate cell plates with 40 μL cells/well along with various concentrations of compounds were kept in Nunc™ Square BioAssay Dishes (Thermo Fisher Scientific) at 98% relative humidity in a 5% C02 incubator at 37° C. for 6 days. On day 7, plates were moved to ambient lab conditions for 10 minutes until the temperature equilibrated. Following equilibration, CellTiter-Glo® Luminescent Cell Viability Assay reagent (Promega™, Madison, WI, USA) was added (15 μL) to each well of the plates. After a 20 minutes incubation, luminescence was detected using a ViewLux™ microplate imager (PerkinElmer, Waltham, MA, USA). Data analysis was performed using GraphPad Prism (Dotmatics, Boston, MA, USA).

For the next assay, the system named is DLD-1 BRCA2 (−/−) cells. The experiment in a line: CellTiter-Glo DLD-1 BRCA2 (−/−) cell assay for PARP1/2 inhibition. The class given is cell-based. The following applies: Homo sapiens, 144 h, 6 days, read-out: DLD-1 BRCA2 (−/−) CTG EC50.
Text: as §1, §2, §3

Sequence of TIPARP GST-(TEV) (Q7Z3E1 441-657): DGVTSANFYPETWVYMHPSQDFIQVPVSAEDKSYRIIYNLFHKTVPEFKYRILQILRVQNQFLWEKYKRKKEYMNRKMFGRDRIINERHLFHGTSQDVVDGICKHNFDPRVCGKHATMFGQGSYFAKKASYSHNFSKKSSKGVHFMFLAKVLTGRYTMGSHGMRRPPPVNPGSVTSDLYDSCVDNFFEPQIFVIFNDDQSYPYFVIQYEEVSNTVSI
Sequence of PARP1 GST (P09874 whole entry): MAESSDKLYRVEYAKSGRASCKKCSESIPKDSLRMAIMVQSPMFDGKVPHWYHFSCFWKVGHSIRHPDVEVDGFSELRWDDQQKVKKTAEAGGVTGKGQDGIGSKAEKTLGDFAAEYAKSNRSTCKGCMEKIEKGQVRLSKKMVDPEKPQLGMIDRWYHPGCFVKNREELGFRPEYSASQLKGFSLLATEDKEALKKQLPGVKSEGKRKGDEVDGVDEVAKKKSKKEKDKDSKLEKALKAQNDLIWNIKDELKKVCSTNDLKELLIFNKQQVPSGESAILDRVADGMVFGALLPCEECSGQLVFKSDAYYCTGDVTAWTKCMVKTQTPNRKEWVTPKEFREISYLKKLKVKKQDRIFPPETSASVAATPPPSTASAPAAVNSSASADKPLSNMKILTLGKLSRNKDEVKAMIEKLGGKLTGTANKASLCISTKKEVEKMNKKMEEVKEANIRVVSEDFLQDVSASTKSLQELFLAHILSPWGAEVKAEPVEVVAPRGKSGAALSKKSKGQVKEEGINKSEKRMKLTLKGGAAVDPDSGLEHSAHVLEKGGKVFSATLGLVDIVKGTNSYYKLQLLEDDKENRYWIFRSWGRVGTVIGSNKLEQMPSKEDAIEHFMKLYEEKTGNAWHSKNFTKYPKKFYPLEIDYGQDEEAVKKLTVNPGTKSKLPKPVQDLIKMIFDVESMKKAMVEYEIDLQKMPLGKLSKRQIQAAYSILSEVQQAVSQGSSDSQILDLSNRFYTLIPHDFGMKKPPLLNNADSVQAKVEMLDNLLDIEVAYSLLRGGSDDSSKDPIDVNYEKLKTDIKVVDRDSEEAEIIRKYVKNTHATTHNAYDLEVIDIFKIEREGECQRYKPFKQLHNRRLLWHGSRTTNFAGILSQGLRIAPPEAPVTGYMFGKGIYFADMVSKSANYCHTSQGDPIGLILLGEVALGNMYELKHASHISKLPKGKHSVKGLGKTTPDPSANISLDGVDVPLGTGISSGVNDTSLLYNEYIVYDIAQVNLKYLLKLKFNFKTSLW

In general, IC50 refers to the concentration at which inhibition is half-maximal. Read a high IC50 as lower potency. As for `C[C@@H]1CN(C(=O)[C@H]2C[C@@H](Cc3c[nH]c(=O)c(C(F)(F)F)c3)C2)CCN1c1ncc(C(F)(F)F)cn1` [Example 15, 5-{[(1S,3s)-3-{(3R)-3-methyl-4-[5-(trifluoromethyl)pyrimidin-2-yl]piperazine-1-carbonyl}cyclobutyl]methyl}-3-(trifluoromethyl)pyridin-2(1H)-one], the EC50 was 10.3 µM with DLD-1 parent cells, 0.0148 µM with NCI-H1373 cells and 1.38 µM in the assay on DLD-1 BRCA2 (−/−) cells. For the same molecule, the 50% inhibitory concentration (IC50) at PARP1 GST was found to be 0.417 µM; at TIPARP GST-(TEV), 0.00215 µM. The “PARP1/TIPARP IC50 Ratio” value at TIPARP GST-(TEV) is listed as 194.
In the case of `C[C@H]1CN(C(=O)[C@H]2C[C@@H](Cc3c[nH]c(=O)c(C(F)(F)F)c3)C2)CCN1c1ncc(C(F)(F)F)cn1` [Example 16, 5-{[(1R,3s)-3-{(3S)-3-methyl-4-[5-(trifluoromethyl)pyrimidin-2-yl]piperazine-1-carbonyl}cyclobutyl]methyl}-3-(trifluoromethyl)pyridin-2(1H)-one], the EC50 came to 15.2 µM in the assay on DLD-1 parent cells, 0.0191 µM with NCI-H1373 cells and 0.997 µM with DLD-1 BRCA2 (−/−) cells. Further, the values for the IC50 on PARP1 GST and at TIPARP GST-(TEV) were 1.16 µM and 0.00334 µM, respectively. Besides, the “PARP1/TIPARP IC50 Ratio” value at TIPARP GST-(TEV) was found to be 347.
Take `C[C@H]1CN(c2ncc(C(F)(F)F)cn2)CCN1C(=O)[C@H]1C[C@@H](Cc2c[nH]c(=O)c(C(F)(F)F)c2)C1` [Example 17, 5-{[(1R,3s)-3-{(2S)-2-methyl-4-[5-(trifluoromethyl)pyrimidin-2-yl]piperazine-1-carbonyl}cyclobutyl]methyl}-3-(trifluoromethyl)pyridin-2(1H)-one]: the values for the EC50 with DLD-1 parent cells, with NCI-H1373 cells and with DLD-1 BRCA2 (−/−) cells were 9.75 µM, 0.0341 µM and 0.217 µM, respectively. Moreover, the figures for the half-maximal inhibitory concentration (IC50) at PARP1 GST and on TIPARP GST-(TEV) were 0.206 µM and 0.005 µM, respectively. Besides, the “PARP1/TIPARP IC50 Ratio” value at TIPARP GST-(TEV) is 41.2.
`C[C@@H]1CN(C(=O)[C@H]2C[C@@H](Cc3c[nH]c(=O)c(C(F)(F)F)c3)C2)CCN1c1ncc(C(C)(C)O)cn1` [Example 18, 5-{[(1S,3s)-3-{(3R)-4-[5-(2-hydroxypropan-2-yl)pyrimidin-2-yl]-3-methylpiperazine-1-carbonyl}cyclobutyl]methyl}-3-(trifluoromethyl)pyridin-2(1H)-one]: the results for the EC50 with DLD-1 parent cells, with NCI-H1373 cells and in the assay on DLD-1 BRCA2 (−/−) cells were 12 µM, 0.0667 µM and 1.05 µM, respectively. Further, the results for the concentration for half-maximal inhibition (IC50) on PARP1 GST and at TIPARP GST-(TEV) were 0.871 µM and 0.00586 µM, respectively. Also, the “PARP1/TIPARP IC50 Ratio” value at TIPARP GST-(TEV) was determined as 149.
For the molecule `C[C@@H]1CN(c2ncc(C(C)(C)O)cn2)CCN1C(=O)[C@H]1C[C@@H](Cc2c[nH]c(=O)c(C(F)(F)F)c2)C1` [Example 19, 5-{[(1S,3s)-3-{(2R)-4-[5-(2-hydroxypropan-2-yl)pyrimidin-2-yl]-2-methylpiperazine-1-carbonyl}cyclobutyl]methyl}-3-(trifluoromethyl)pyridin-2(1H)-one], the EC50 is more than 30 µM with DLD-1 parent cells, 0.0712 µM in the assay with NCI-H1373 cells and 18.3 µM with DLD-1 BRCA2 (−/−) cells. The IC50 stood at 6.75 µM on PARP1 GST and 0.00579 µM at TIPARP GST-(TEV). For the same molecule, the “PARP1/TIPARP IC50 Ratio” value on TIPARP GST-(TEV) was 1170.
In the case of `C[C@H]1CN(C(=O)[C@H]2C[C@@H](Cc3c[nH]c(=O)c(C(F)(F)F)c3)C2)CCN1c1ncc(C(C)(C)O)cn1` [Example 20, 5-{[(1R,3s)-3-{(3S)-4-[5-(2-hydroxypropan-2-yl)pyrimidin-2-yl]-3-methylpiperazine-1-carbonyl}cyclobutyl]methyl}-3-(trifluoromethyl)pyridin-2(1H)-one], the values for the EC50 in the assay with DLD-1 parent cells, in the assay with NCI-H1373 cells and in the assay on DLD-1 BRCA2 (−/−) cells were more than 30 µM, 0.0817 µM and 3 µM, respectively. The IC50 was determined as 2.13 µM on PARP1 GST and 0.00695 µM on TIPARP GST-(TEV). Besides, the “PARP1/TIPARP IC50 Ratio” value on TIPARP GST-(TEV) was found to be 306.
With `C[C@H]1CN(c2ncc(C(C)(C)O)cn2)CCN1C(=O)[C@H]1C[C@@H](Cc2c[nH]c(=O)c(C(F)(F)F)c2)C1` [Example 21, 5-{[(1R,3s)-3-{(2S)-4-[5-(2-hydroxypropan-2-yl)pyrimidin-2-yl]-2-methylpiperazine-1-carbonyl}cyclobutyl]methyl}-3-(trifluoromethyl)pyridin-2(1H)-one], the EC50 with DLD-1 parent cells was more than 30 µM; in the assay on NCI-H1373 cells, 0.16 µM; in the assay on DLD-1 BRCA2 (−/−) cells it was 1.06 µM. Further, the figures for the half-inhibitory concentration (IC50) at PARP1 GST and on TIPARP GST-(TEV) were 0.331 µM and 0.0129 µM, respectively. Further, the “PARP1/TIPARP IC50 Ratio” value at TIPARP GST-(TEV) stood at 25.7.
